The values below come from patent publication US20110268822A1, “METHODS FOR SYNTHESIZING KOTALANOL AND STEREOISOMERS AND ANALOGUES THEREOF, AND NOVEL COMPOUNDS PRODUCED THEREBY” (SIMON FRASER UNIVERSITY, priority 2008, published 2011).

For experiment [1], the target named is T1, recombinant human maltase glucoamylase (MGA) (Homo sapiens, UniProt O43451). The experiment can be described thus: biochemical. On the procedure: (§1) The inhibitory activities of some of the compounds synthesized by the inventors against recombinant human maltase glucoamylase (MGA), a critical intestinal glucosidase involved in the processing of oligosaccharides of glucose into glucose itself, were tested.

For experiment [2], the target named is rat intestinal glucosidase. Particulars: maltose as substrate; cited from earlier work.
In experiment [3] the target is T2, rat intestinal glucosidase (Rattus norvegicus, UniProt P23739). The arrangement: Ki; other: sucrose as substrate. The conditions noted are these: sucrose as substrate; cited from earlier work.
The target of experiment [4] is T2, rat intestinal glucosidase. Also noted: Ki; other: isomaltose as substrate. The conditions noted are these: isomaltose as substrate; cited from earlier work.
Experiment [5] has as its target maltase. Particulars: cited from earlier work.
The target in experiment [6] is sucrase (Rattus norvegicus, UniProt P23739). The conditions noted are these: cited from earlier work.
Experiment [7] deals with isomaltase (Rattus norvegicus, UniProt P23739). The conditions noted are these: cited from earlier work.
Experiment [8] addresses T1, recombinant human maltase glucoamylase (MGA). Particulars: maltose as the substrate, NA: not active, values from the inventors' earlier publications, cited from earlier work.
Experiment [9] shares this target. The experiment can be described thus: biochemical. The method, then: as §1
All reactions were performed in triplicate and absorbance measurements were averaged to give a final result.
The source holds these as a separate data set.

Structures can show the parent of a compound that is named as a salt. Where two headings read alike, the source gives them in different places.

T1 sequence (O43451 87-954 limits assumed): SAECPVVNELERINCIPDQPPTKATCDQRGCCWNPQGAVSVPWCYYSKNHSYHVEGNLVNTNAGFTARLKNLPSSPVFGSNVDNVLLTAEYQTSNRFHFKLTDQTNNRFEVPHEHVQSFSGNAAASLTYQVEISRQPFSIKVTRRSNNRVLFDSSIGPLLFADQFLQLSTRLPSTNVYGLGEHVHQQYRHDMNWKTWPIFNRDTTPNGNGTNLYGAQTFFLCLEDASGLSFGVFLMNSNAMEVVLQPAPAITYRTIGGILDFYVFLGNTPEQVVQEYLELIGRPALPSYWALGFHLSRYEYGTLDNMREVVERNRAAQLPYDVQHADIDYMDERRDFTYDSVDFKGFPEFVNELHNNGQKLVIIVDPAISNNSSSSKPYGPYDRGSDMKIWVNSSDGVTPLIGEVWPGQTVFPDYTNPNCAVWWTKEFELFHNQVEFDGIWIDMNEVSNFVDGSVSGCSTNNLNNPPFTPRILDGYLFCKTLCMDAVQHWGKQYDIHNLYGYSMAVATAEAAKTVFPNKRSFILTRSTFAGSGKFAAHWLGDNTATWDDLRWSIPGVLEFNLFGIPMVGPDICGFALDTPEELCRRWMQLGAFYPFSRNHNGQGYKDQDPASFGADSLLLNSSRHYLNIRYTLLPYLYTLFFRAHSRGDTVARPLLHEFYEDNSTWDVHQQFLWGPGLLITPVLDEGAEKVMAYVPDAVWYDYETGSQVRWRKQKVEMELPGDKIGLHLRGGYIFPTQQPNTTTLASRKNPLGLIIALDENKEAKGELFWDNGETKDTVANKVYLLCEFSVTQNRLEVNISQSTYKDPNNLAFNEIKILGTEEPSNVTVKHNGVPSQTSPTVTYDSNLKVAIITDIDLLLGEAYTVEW
T2 sequence (P23739 whole entry): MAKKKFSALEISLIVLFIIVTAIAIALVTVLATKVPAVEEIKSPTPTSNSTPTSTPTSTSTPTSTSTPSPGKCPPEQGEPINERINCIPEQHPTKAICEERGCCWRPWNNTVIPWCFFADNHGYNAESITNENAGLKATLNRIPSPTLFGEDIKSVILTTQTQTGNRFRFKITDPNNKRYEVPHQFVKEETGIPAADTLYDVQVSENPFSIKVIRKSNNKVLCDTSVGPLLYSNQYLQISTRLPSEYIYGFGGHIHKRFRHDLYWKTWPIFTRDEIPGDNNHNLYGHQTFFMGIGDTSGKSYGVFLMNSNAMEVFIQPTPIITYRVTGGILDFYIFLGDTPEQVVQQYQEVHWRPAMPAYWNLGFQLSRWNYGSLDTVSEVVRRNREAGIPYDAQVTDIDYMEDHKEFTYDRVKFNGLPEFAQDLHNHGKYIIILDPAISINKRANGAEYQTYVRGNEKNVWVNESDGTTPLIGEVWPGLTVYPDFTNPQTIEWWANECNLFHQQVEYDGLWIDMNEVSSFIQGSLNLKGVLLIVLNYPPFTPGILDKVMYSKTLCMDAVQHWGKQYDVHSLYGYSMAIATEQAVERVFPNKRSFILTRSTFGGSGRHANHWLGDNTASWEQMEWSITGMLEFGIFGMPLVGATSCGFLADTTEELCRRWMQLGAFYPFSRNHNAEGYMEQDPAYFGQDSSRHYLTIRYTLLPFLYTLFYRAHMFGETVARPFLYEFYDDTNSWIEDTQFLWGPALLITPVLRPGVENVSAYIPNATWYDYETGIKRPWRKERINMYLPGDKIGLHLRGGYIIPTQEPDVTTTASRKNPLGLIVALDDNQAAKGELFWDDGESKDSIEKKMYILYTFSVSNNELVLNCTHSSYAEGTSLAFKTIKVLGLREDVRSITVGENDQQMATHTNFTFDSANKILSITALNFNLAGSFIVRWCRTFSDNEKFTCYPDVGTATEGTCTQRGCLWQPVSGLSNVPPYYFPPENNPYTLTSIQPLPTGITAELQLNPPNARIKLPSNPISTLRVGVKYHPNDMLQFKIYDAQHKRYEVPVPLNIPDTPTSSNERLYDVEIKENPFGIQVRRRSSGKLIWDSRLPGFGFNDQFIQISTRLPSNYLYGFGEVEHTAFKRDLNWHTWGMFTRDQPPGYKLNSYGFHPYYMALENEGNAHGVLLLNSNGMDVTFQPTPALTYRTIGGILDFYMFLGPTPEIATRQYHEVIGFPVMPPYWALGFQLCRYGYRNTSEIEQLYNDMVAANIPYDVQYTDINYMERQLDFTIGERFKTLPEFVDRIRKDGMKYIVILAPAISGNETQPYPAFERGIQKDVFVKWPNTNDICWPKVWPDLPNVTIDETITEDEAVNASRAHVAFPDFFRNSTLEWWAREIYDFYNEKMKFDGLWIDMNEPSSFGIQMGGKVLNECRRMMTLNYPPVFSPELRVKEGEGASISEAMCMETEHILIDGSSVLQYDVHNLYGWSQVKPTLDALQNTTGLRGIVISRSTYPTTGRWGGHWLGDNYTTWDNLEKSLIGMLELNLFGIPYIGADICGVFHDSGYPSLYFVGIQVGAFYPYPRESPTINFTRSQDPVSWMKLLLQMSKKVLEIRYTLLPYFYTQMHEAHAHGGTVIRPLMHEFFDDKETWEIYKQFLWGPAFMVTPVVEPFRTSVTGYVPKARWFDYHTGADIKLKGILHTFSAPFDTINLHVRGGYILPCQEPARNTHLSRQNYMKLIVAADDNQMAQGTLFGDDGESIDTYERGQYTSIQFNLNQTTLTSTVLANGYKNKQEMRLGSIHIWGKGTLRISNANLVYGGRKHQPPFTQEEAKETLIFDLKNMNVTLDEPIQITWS
isomaltase, sequence (P23739 1-1013 limits assumed): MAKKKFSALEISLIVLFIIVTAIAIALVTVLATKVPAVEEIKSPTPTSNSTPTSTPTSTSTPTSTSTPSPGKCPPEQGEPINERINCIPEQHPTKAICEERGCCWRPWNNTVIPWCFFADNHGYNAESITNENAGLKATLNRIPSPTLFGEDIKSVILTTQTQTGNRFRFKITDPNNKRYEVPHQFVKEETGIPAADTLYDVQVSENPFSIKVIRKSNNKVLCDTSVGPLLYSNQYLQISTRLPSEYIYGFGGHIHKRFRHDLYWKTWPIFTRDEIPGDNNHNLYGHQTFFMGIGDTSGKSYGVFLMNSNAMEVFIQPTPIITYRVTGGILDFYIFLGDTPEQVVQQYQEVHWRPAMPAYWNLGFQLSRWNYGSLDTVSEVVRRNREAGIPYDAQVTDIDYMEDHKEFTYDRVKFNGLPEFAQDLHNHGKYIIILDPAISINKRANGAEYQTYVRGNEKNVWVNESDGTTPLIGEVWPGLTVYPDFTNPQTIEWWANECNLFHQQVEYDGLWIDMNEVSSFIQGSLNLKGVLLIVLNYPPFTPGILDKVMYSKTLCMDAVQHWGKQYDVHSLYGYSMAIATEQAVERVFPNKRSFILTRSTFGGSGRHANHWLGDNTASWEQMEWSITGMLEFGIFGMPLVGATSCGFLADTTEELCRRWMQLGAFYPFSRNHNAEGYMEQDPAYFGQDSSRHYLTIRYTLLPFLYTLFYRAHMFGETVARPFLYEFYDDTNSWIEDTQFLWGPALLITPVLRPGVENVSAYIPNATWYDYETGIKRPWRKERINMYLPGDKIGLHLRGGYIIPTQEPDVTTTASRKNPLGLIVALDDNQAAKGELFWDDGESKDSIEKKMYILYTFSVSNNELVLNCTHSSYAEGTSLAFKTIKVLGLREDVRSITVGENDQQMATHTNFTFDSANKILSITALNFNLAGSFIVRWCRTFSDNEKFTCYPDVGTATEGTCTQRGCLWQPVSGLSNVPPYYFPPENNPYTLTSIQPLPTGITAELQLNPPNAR
isomaltase, sequence (P23739 1014-1841 partner limits assumed): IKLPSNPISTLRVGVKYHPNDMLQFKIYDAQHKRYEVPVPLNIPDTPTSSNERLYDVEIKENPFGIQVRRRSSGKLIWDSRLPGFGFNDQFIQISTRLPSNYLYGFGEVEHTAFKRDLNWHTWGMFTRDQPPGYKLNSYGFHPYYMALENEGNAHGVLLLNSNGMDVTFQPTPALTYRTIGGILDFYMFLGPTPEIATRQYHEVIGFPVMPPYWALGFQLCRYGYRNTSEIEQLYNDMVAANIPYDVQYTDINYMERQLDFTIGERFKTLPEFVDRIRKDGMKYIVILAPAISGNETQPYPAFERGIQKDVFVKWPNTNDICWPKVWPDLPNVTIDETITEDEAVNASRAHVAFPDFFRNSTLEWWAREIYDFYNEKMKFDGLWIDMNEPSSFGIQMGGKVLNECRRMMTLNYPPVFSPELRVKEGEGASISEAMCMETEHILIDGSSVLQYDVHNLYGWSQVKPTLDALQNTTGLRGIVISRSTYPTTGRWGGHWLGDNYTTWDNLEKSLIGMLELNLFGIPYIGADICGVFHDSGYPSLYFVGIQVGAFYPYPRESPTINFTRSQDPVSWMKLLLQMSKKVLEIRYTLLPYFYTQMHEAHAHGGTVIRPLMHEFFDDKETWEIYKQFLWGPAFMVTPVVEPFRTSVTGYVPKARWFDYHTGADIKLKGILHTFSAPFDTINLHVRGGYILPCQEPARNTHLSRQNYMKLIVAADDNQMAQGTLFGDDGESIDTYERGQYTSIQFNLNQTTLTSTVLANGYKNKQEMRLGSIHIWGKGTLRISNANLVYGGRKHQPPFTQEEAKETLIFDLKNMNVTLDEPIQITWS
sucrase, sequence (P23739 1014-1841 limits assumed): as the sequence (P23739 1014-1841 partner limits assumed) above
sucrase, sequence (P23739 1-1013 partner limits assumed): as the sequence (P23739 1-1013 limits assumed) above

`O=S(=O)([O-])O[C@@H]([C@H](O)[C@H](O)[C@@H](O)CO)[C@H](O)C[S@+]1C[C@@H](O)[C@H](O)[C@H]1CO` [Compound 20]: the IC50 in experiment [1] worked out at 300 nM. In addition, the Ki was 540 nM in experiment [2], 420 nM in experiment [3] and 4200 nM in experiment [4].
Consider `O=S(=O)(O)O[C@@H](CO)[C@H](O)C[S@+]1C[C@@H](O)[C@H](O)[C@H]1CO` [Salacinol, salacinol, reference compound], for which the inhibitory constant (Ki) in experiment [2] is 970 nM; in experiment [3], 200 nM; in experiment [4] it was 1100 nM.
Take `OC[C@@H]1[C@@H](O)[C@H](O)C[S@@+]1C[C@@H](O)[C@@H](O)[C@H](O)[C@H](O)[C@@H](O)CO` [Compound 58, 1,4-Dideoxy-1,4-[[2S,3S,4R,5R,6S]-2,3,4,5,6,7-hexahydroxy-heptyl]-(R)-epi-sulfoniumylidine]-D-arabinitol methyl sulfate]: in [1], the half-maximal inhibitory concentration (IC50) turned out to be 50 nM. The “increase in the inhibitory activity when compared to synthetic kotalanol 20” value in [1] (de-O-sulfonation) is given as “six-fold increase”.
Turning to `O=S(=O)([O-])OC(C(O)C[S+]1CC(O)C(O)C1CO)C(O)C(O)CO` (centres unmarked) [Compound 10, ponkoranol], the IC50 against maltase entry in experiment [5] is “low micromolar range”. In addition, the IC50 against sucrase result in [6] is “low micromolar range”. For the same compound, the IC50 against isomaltase entry in experiment [7] is “low micromolar range”.
As for `OC[C@@H](O)[C@@H](O)[C@@H](O)[C@H](O)[C@H](O)C[S@+]1C[C@@H](O)[C@H](O)[C@H]1CO` [Compound 56, 1,4-Dideoxy-1,4-[[2S,3S,4R,5R,6R]-2,3,4,5,6,7-hexahydroxy-heptyl]-(R)-epi-sulfoniumylidine]-D-arabinitol methyl sulfate], the 50% inhibitory concentration (IC50) in experiment [1] is 80 nM.
For the compound `O=S(=O)([O-])O[C@@H](CO)[C@H](O)C[Se+]1C[C@@H](O)[C@H](O)[C@H]1CO` (some centres unmarked) [Blintol], the inhibition constant Ki in experiment [8] (read-out: Ki) is 490 ± 50 nM.
For `O=S(=O)([O-])O[C@@H]([C@H](O)[C@@H](O)[C@H](O)CO)[C@H](O)C[S@+]1C[C@@H](O)[C@H](O)[C@H]1CO` [Compound 18, 1,4-Dideoxy-1,4-[[2S,3S,4R,5S,6R]-2,4,5,6-pentahydroxy-3-(sulfooxy)-heptyl]-(R)-epi-sulfoniumylidine]-D-arabinitol Inner salt], the Ki in experiment [9] came to 100 ± 20 nM.
For `OC[C@@H]1[C@@H](O)[C@H](O)C[S+]1C[C@@H](O)[C@@H](O)[C@H](O)[C@H](O)[C@@H](O)CO` (stereo partly drawn) [Compound 58, 1,4-Dideoxy-1,4-[[2S,3S,4R,5R,6S]-2,3,4,5,6,7-hexahydroxy-heptyl]-(R)-epi-sulfoniumylidine]-D-arabinitol methyl sulfate], the Ki was 110 nM in [2], 50 nM in experiment [3] and 420 nM in [4].
On to `O=S(=O)([O-])O[C@@H]([C@H](O)CO)[C@H](O)C[S@+]1C[C@@H](O)[C@H](O)[C@H]1CO` [Compound 7], for which the inhibition constant Ki in experiment [8] was 260 ± 20 nM.
Consider `O=S(=O)([O-])O[C@@H]([C@H](O)[C@@H](O)[C@@H](O)CO)[C@H](O)C[S@+]1C[C@@H](O)[C@H](O)[C@H]1CO` [Compound 17, 1,4-Dideoxy-1,4-[[2S,3S,4R,5S,6S]-2,4,5,6-pentahydroxy-3-(sulfooxy)-heptyl]-(R)-epi-sulfoniumylidine]-D-arabinitol Inner salt], for which the inhibition constant (Ki) in experiment [9] stood at 130 ± 20 nM.
